Test results from US7279491B2 (Janssen Pharmaceutica N.V., priority 2002, dated 2007).

Biological target: T1, human histamine H3 receptor (Homo sapiens, UniProt Q9Y5N1)
T1 construct: One microgram of supercoiled H3 receptor cDNA was added to the cells and mixed; expressed in transfected cells; membranes
Test: {3H}-N-methylhistamine binding to membranes of histamine H3 receptor-expressing SK-N-MC cells
Conditions: 0.8 nM {3H}-N-methylhistamine, 45 min at 25° C., Ki=(IC50)/(1+({L}/(Kd)), Kd 800 pM)
Procedure: Transfection of Cells with Human Histamine Receptor
A 10 cm tissue culture dish with a confluent monolayer of SK-N-MC cells was split two days prior to transfection. Using sterile technique the media was removed and the cells were detached from the dish by the addition of trypsin. One fifth of the cells were then placed onto a new 10 cm dish. Cells were grown in a 37° C. incubator with 5% CO2 in Minimal Essential Media Eagle with 10% Fetal Bovine Serum. After two days cells were approximately 80% confluent. These were removed from the dish with trypsin and pelleted in a clinical centrifuge. The pellet was then re-suspended in 400 μL complete media and transferred to an electroporation cuvette with a 0.4 cm gap between the electrodes. One microgram of supercoiled H3 receptor cDNA was added to the cells and mixed. The voltage for the electroporation was set at 0.25 kV, the capacitance was set at 960 μF. After electroporation the cells were diluted into 10 mL complete media and plated onto four 10 cm dishes. Because of the variability in the efficiency of electroporation, four different concentrations of cells were plated. The ratios used were; 1:20, 1:10, 1:5, with the remainder of the cells being added to the fourth dish. The cells were allowed to recover for 24 h before adding the selection media (complete media with 600 μg/mL G418). After 10 days dishes were analyzed for surviving colonies of cells. Dishes with well-isolated colonies were used. Cells from individual colonies were isolated and tested. SK-N-MC cells were used because they give efficient coupling for inhibition of adenylate cyclase. The clones that gave the most robust inhibition of adenylate cyclase in response to histamine were used for further study.
{^3H}-N-methylhistamine Binding
Cell pellets from histamine H3 receptor-expressing SK-N-MC cells were homogenized in 20 mM Tris HCl/0.5 mM EDTA. Supernatants from an 800 g spin were collected, recentrifuged at 30,000 g for 30 min. Pellets were re-homogenized in 50 mM Tris/5 mM EDTA (pH 7.4). Membranes were incubated with 0.8 nM {^3H}-N-methylhistamine plus/minus test compounds for 45 min at 25° C. and harvested by rapid filtration over GF/C glass fiber filters (pretreated with 0.3% polyethylenimine) followed by four washes with ice-cold buffer. Filters were dried, added to 4 mL scintillation cocktail and then counted on a liquid scintillation counter. Non-specific binding was defined with 10 μM histamine. The pKi values were calculated based on a Kd of 800 pM and a ligand concentration ({L}) of 800 pM according to the formula: Ki=(IC50)/(1+({L}/(Kd))

T1 sequence (Q9Y5N1 whole entry): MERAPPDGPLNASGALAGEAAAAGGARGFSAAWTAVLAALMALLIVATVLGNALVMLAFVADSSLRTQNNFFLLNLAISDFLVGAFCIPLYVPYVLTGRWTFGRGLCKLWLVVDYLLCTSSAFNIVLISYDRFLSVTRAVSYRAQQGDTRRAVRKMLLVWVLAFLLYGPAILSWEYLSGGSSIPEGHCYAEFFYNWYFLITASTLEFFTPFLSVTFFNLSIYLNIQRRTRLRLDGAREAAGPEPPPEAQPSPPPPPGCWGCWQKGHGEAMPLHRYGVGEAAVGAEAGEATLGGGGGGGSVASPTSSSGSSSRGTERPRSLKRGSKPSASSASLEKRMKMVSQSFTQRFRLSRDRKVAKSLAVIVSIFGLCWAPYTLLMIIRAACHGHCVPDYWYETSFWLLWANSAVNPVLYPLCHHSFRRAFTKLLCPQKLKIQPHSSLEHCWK

Row | Ki [nM] | Compound
1 | 12 | c1cc(N2CCC(CN3CCCC3)CC2)ccc1CN1CCOCC1 [Example 41, 4-{4-(4-Pyrrolidin-1-ylmethyl-piperidin-1-yl)-benzyl}-morpholine]
2 | 2.7 | c1cc(N2CCC(N3CCCCC3)CC2)ccc1CN1CCCCC1 [Example 53, 1′-(4-Piperidin-1-ylmethyl-phenyl)-{1,4′}bipiperidinyl]
3 | 0.8 | CCN(CC)CCC1CCN(c2ccc(CN3CCCCC3)cc2)C1 (stereo not shown) [Example 61, Diethyl-{2-{1-(4-piperidin-1-ylmethyl-phenyl)-pyrrolidin-3-yl}-ethyl}-amine]
4 | 5 | OC1CCN(Cc2ccc(N3CCC(CN4CCCC4)CC3)cc2)CC1 [Example 38, 1-{4-(4-Pyrrolidin-1-ylmethyl-piperidin-1-yl)-benzyl}-piperidin-4-ol]
5 | 9 | FC(F)(F)c1cc(CN2CCC(N3CCCC3)CC2)ccc1N1CCC(CN2CCCC2)CC1 [Example 76, 1-{1-[4-(4-Pyrrolidin-1-yl-piperidin-1-ylmethyl)-2-trifluoromethyl-phenyl]-piperidin-4-ylmethyl}-pyrrolidine]
6 | 17 | c1cc(N2CCC(N3CCCC3)CC2)ccc1CN1CCOCC1 [Example 51, 4-{4-(4-Pyrrolidin-1-yl-pieridin-1-yl)-benzyl}-morpholine]
7 | 8 | c1ccc(NCC2CCN(c3ccc(CN4CCCC4)cc3)CC2)cc1 [Example 55, Phenyl-{1-(4-pyrrolidin-1-ylmethyl-phenyl)-piperidin-4-ylmethyl}-amine]
8 | 1.1 | c1cc(N2CCC(CCN3CCOCC3)C2)ccc1CN1CCCCC1 (stereo not shown) [Example 60, 4-{2-{1-(4-Piperidin-1-ylmethyl-phenyl)-pyrrolidin-3-yl}-ethyl}-morpholine]
9 | 0.8 | CCN(CC)CC1CCN(c2ccc(CN3CCCC3)cc2)CC1 [Example 25, Diethyl-{1-(4-pyrrolidin-1-ylmethyl-phenyl)-piperidin-4-ylmethyl}-amine]
10 | 1 | Cc1cc(CN2CCCC2)ccc1N1CCC(CN2CCCC2)CC1 [Example 74]
11 | 28 | c1cc(N2CCC(NC3CCCCC3)CC2)ccc1CN1CCOCC1 [Example 46, Cyclohexyl-{1-(4-morpholin-4-ylmethyl-phenyl)-piperidin-4-yl}-amine]
12 | 0.6 | c1cc(N2CCC(CN3CCCC3)CC2)ccc1CN1CCCC1 [Example 58, 4-Pyrrolidin-1-ylmethyl-1-(4-pyrrolidin-1-ylmethyl-phenyl)-piperidine]
13 | 160 | FC(F)(F)c1ccc(C2CCN(Cc3ccc(N4CCC(CN5CCCC5)CC4)cc3C(F)(F)F)CC2)cc1 [Example 77, 1-(1-{3-Trifluoromethyl-4-[4-(4-trifluoromethyl-phenyl)-piperidin-1-ylmethyl]-phenyl}-piperidin-4-ylmethyl)-pyrrolidine]
14 | 5 | O=[N+]([O-])c1cc(CN2CCC(O)CC2)ccc1N1CCC(CN2CCCC2)CC1 [Example 71, 1-[3-Nitro-4-(4-pyrrolidin-1-ylmethyl-piperidin-1-yl)-benzyl]-piperidin-4-ol]
15 | 2 | c1cc(N2CCC(CN3CCOCC3)CC2)ccc1CN1CCCC1 [Example 31, 4-{1-(4-Pyrrolidin-1-ylmethyl-phenyl)-pieridin-4-ylmethyl}-morpholine]

Row | Compound | Ki [nM]
16 | CN1CCN(Cc2ccc(N3CCC(CN4CCCC4)CC3)cc2)CC1 [Example 39, 1-Methyl-4-{4-(4-pyrrolidin-1-ylmethyl-piperidin-1-yl)-benzyl}-piperazine] | 6
